# In patent US10758522B2, “Small molecule analogs of the nemo binding peptide” (THE SCRIPPS RESEARCH INSTITUTE, priority 2015, dated 2020):
# What was measured:
# [1] = test system: NF-κB target genes; assay: qRT-PCR of NF-κB target genes in LPS-stimulated Raw 264.7 cells; type: cell-based, mouse; conditions: for transcription of NF-κB target genes (COX2, IL-6, IL-1β, TNF-α, IκBα, iNOS): Raw 264.7, 1 ug/ml LPS 2 hr, mimetics 50 μM, IKKi VII 2 μM, 8K-NBD 400 μM
# Description: Effect of the NBD mimetics on expression of NF-kB regulated genes in the Raw mouse macrophage cell line. Treatment of the Raw cells with the indicated drugs prior to addition of LPS reduced NF-kB-mediated gene expression as measured by RT-PCR.
# To determine whether the inhibitory effect of the mimetics is TNF-α-dependent, LPS-mediated NF-κB activation via TLR4 was examined to determine a broader inhibitory effect of the novel NBD mimetics. NF-κB was stimulated in Raw 264.7 by 1 ug/ml of LPS for 2 hr and genes transcriptionally regulated by NF-κB were determined by qRT-PCR analysis. Both an IKK active site inhibitor IKKi VII (2 μM) and the 8K-NBD peptide (400 μM) were included as positive controls and the expression of COX2, IL-6, IL-1β, TNF-α, IκBα and iNOS were assessed.
# Raw 264.7 cells were treated with a 50 μM solution of the SR compound for 30 minutes, and then the mRNA was harvested 2 hours after addition of 1 μg/mL LPS.
# Snap frozen tissues were preserved in RNAlater RNA stabilization solution (ThermoFisher) before processed. Total RNA was extracted from cells or tissues using TRIZOL reagent (Life Technologies) and 1500 ng of messenger RNA (mRNA) was subjected to synthesize complementary DNA (cDNA) using SuperScript VILO cDNA synthesis kit. qRT-PCR was performed in a StepOnePlus Real-Time PCR system using Platinum SYBR Green qPCR SuperMix-UDG (ThermoFisher). Target gene expression was calculated using the comparative CT method (ΔΔCT) and normalized to an internal control gene Actb (β-actin). Primers used are as follows: Ptgs2 (COX-2) forward: […]; Ptgs2 (COX-2) reverse: […]; Nfkbia (IκBα) forward: […]; Nfkbia (IκBα) reverse: […]; Il1b (IL-1β) forward: […]; Il1b (IL-1β) reverse: […]; Nos2 (iNOS) forward: […]; Nos2 (iNOS) reverse: […]; Tnf (TNF) forward: […]; Tnf (TNF) reverse: […]; Il6 (IL-6) forward: […]; Il6 (IL-6) reverse: […]. Actb (β-actin) forward: […]; Actb (β-actin) reverse: […];
# [2] = test system: embryonic fibroblasts from Ercc1−/− mice; assay: Senescence rescue assay in ERCC1-deficient murine embryonic fibroblasts (SA-ß-gal); type: cell-based, mouse; conditions: oxidative stress conditions (20% O2)
# Source text: In an attempt to identify new drugs able to improve healthspan, we have developed an assay for screening for drugs able to rescue primary “aged” fibroblasts from senescence. This assay uses murine embryonic fibroblasts (MEFs) from mice with accelerated aging due to a deficiency in an important DNA repair pathway, ERCC1-XPF. These MEFs undergo rapid senescence in culture, especially when grown under the high oxygen conditions that confers oxidative stress (FIGS. 18 and 19).
# [3] = Pharmacokinetics study after ip injection; type: in vivo; conditions: mice, 10 mg/kg ip, 2 hr
# Description: To determine the stability of the NBD mimetics in vivo, the pharmacokinetics of the compounds was determined in serum following ip injection.
# The pharmacokinetic profiles of the NBD mimetics were determined in male C57BL/6J mice (n=3). The drugs were formulated in 10:10:80 of DMSO:Tween 80:water and were dosed by intraperitoneal injection at a final dose of 10 mg/kg. Blood, brain, muscle, spleen, and liver were collected 2 hr post-treatment and were analyzed by mass spectrometry by following the protocol described in ref. 215 (42).
# [4] = test system: IL-6; assay: IL-6 ELISA in LPS-stimulated Raw 264.7 cells; type: cell-based, mouse; conditions: Raw 264.7, 1 ug/ml LPS, supernatant at 24 hr
# Description: To confirm the qRT-PCR result, LPS-mediated IL-6 production was analyzed in Raw 264.7 cells by ELISA. […] Moreover, SR11481 appears to work more efficiently at a lower concentration around 25 μM. Taken together, four lead compounds were identified through seven rounds of optimization and modification.
# Enzyme-Linked Immunosorbent Assay (ELISA). Raw264.7 cells were grown in a 96-well plate and pretreated with vehicle, IKKi VII (2 uM) and small molecules (at indicated concentration) for 1 hr, followed by the stimulation with 1 ug/ml of LPS. Supernatant was collected 24 hr later for ELISA analysis. IL-6 concentration was measured using a mouse IL-6 ELISA kit (BD) according to the manufacturer's instructions.
# [5] = test system: IKKβ-NEMO interaction; assay: Immunoprecipitation of NEMO and IKKβ immunoblot in Raw 264.7 macrophages and HEK293 cells; type: cell-based; conditions: Raw 264.7 macrophages / HEK293; mimetics 100 μM, 8K-NBD 400 μM
# Description: The NBD mimetics reduce the interaction between IKKg (NEMO) and IKKß. The indicated concentrations of the drugs were added to HEK 293 or Raw 264.7 cells and cell extracts prepared 30 minutes later. Following immunoprecipitation (IP) of NEMO, the Western was probed for IKKß.
# After treatment with the mimetics or NBD peptide, NEMO was immunoprecipitated by an anti-NEMO antibody and IKKβ was immunoblotted to determine the binding of IKKβ to NEMO.
# HEK293 or Raw264.7 cells were seeded at 1×10^6 cells/well in 6-well plates and treated with vehicle, small molecule or NBD peptide for indicated time. Cells were lysed in NP-40 lysis buffer supplemented with 1× protease inhibitor cocktails (sigma). Protein was immunoprecipitated by incubating 150 μg of lysate with 1 μg of anti-NEMO antibody (Santa Cruz) on a rotating shaker at 4° C. for 4 hrs, followed by incubation with 20 ul of Protein A agarose beads (ThermoFisher) for 1 hr. Beads were washed in NP40 buffer 3 times and PBS once. Protein was then denatured in SDS-sample buffer and resolved by MINI-PROTEAN TGX 4-15% SDS-PAGE. Anti-IKKβ (1:1000 CST) was used to assess binding of IKKβ to NEMO and anti-NEMO (1:1000 CST) or IgG were used to as a loading control.
# [6] = biological target: T1, IKK complex (IKKß, IKKα and NEMO) (Homo sapiens, UniProt Q9Y6K9); assay: Co-immunoprecipitation of NEMO with IKKß in 293 cells; type: cell-based; conditions: Zinc-5 at 4 hours, Zinc-13 at 1 hour, NBD peptide at 4 hours
# T1 construct: analyzed by Western blot for the level of co-precipitated NEMO; endogenous in cells; host or cells: 293 (HEK293) cells
# Source text: FIG. 8 is a bar graph showing the inhibition of TNFα by NBDA-1 (Zinc-13). […] In addition, we have examined the ability of the compounds to disrupt the IKK complex, comprised of IKKß, IKKα and NEMO.
# A non-functional, related compound Zinc-7 had no effect.
# [7] = test system: NF-κB; assay: Firefly luciferase NF-κB reporter assay in TNF-α-stimulated HEK293 cells; type: cell-based; conditions: 293 NF-κB luciferase reporter cells, 10 ng/ml TNF-α; compound 12909780 at 100 μM
# Description: This model was used to screen a subset of the drug-like ZINC 8.0 database set (˜900,000 compounds) (Irwin et al., 2005). We were able to identify 161 hits that matched at least 6 features out of eight of the pharmacophore model. […] Two compounds termed NBDA-1 (Zinc-13) and NBDA-2 (Zinc-5), successfully passed these filters (See FIG. 4) and were purchased for biological testing. The compounds were then tested for ability to inhibit TNF-alpha-mediated induction of NF-κB activity in a 293 cells stably modified with a NF-κB luciferase reporter.
# The activation of NF-κB was then quantitated by measuring the level of luciferase activity. […] Also, protein extracts were prepared from the same cells and the level of phospho-IkB determined, a marker of IKK activity.
# To test if the small molecules identified by the in silico screen inhibit NF-κB activation, a HEK293 cell line stably expressing a luciferase reporter driven by a synthetic, NF-κB-dependent promoter was utilized. To induce NF-κB activation, cells were treated with 10 ng/ml of TNF-α and harvested three hours post-treatment for analysis of luciferase activity. […] To determine if compound 12909780 inhibited NF-κB in a dose dependent manner, concentrations were tested at 0, 6.25, 25, 50 and 100 μM.
# HEK293 cells stably transfected with luciferase reporter plasmid driven by NF-κB were seeded in 96-well plate in triplicate and pretreated with DMSO or varying small molecules at indicated concentration for 30 min, followed by the stimulation of 10 ng/ml of TNFα for 3 hr. Cell were washed with PBS once and harvested in passive lysis buffer. Luciferase assay (Promega) was performed using a luminometer according to the manufacturer's instructions.
# [8] = biological target: NEMO (Homo sapiens, UniProt Q9Y6K9); conditions: cited from earlier work; for IC50: read-out: IC50, affinity to NEMO
# Chain of NEMO (Q9Y6K9 whole entry, species assumed): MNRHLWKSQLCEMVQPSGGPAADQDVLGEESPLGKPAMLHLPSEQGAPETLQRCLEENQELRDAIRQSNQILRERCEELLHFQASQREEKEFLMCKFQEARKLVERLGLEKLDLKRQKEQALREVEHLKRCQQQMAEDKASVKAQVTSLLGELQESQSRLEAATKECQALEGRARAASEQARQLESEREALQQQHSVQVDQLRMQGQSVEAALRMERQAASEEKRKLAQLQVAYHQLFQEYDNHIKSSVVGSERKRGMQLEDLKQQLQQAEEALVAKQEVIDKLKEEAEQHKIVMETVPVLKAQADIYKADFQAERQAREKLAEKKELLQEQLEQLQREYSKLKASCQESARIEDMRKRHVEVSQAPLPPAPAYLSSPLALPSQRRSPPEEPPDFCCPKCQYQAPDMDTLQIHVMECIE
# T1 sequence (Q9Y6K9 whole entry, one chain of several): as the sequence (Q9Y6K9 whole entry, species assumed) above
compound,measurement,setting,value
"O=C(c1ccc(Nc2nccc(-c3cc4ccccc4s3)n2)cc1)N1CCC(N2CCCC2)CC1 [IKKi VII, reference compound]","transcription of NF-κB target genes (COX2, IL-6, IL-1β, TNF-α, IκBα, iNOS)",[1],able to inhibit most NF-κB target gene expression
same,iNOS expression,"[1]; Raw 264.7, LPS",failed to downregulate iNOS expression
CC(Cc1ccc(O)c(O)c1)C(C)Cc1ccc(O)c(O)c1 (centres unmarked) [NDGA],senescence (SA-ß-gal staining) of ERCC1-deficient MEFs,[2],most effective for rescuing senescence
"O=C(COC(=O)Cc1cc(F)cc(F)c1)Nc1ccc(Cl)cn1 [SR11481, 2-((5-chloropyridin-2-yl)amino)-2-oxoethyl 2-(3,5-difluorophenyl)acetate]",stability in serum after ip injection,[3],extremely unstable with undetectable levels at 2 hr
same,LPS-mediated mIL-6 production (ELISA),[4],reduction in the accumulation of IL-6 protein at 24 hr
same,"transcription of NF-κB target genes (COX2, IL-6, IL-1β, TNF-α, IκBα, iNOS)",[1],failed to suppress all NF-κB target genes
same,"disruption of IKKβ-NEMO interaction (NEMO IP, IKKβ blot)",[5],disruption of the association between NEMO and IKK-β
"O=C(COCCc1cc(F)cc(F)c1)Nc1ccc(Cl)cn1 [SR12454, N-(5-chloropyridin-2-yl)-2-(3,5-difluorophenethoxy)acetamide]",stability in serum after ip injection,[3],moderate stability
same,LPS-mediated mIL-6 production (ELISA),[4],decreasing by half at 25 μM
same,"transcription of NF-κB target genes (COX2, IL-6, IL-1β, TNF-α, IκBα, iNOS)",[1],significantly downregulate the transcription of all NF-κB target genes tested
same,"disruption of IKKβ-NEMO interaction (NEMO IP, IKKβ blot)",[5],disruption of the association between NEMO and IKK-β
"O=C(COC(=O)c1c2ccccc2cc2ccccc12)Nc1ncc(C(F)(F)F)cc1Cl [ZINC7, anthracene-9-carboxylic-acid-[2-[[3-chloro-5-(trifluoromethyl)-2-pyridyl]amino]-2-keto-ethyl]-ester]",level of NEMO co-immunoprecipitated with IKKß,[6],had no effect
"O=C(COC(=O)Cc1ccccc1)Nc1ncc(Cl)cc1Cl [ZINC9, 2-phenylacetic-acid-[2-[(3,5-dichloro-2-pyridyl)amino]-2-keto-ethyl]-ester]","inhibition of TNF-α-induced NF-κB activation (luciferase reporter), in words",[7],lowered NF-κB activity robustly
CC(=O)Oc1ccccc1C(=O)O [aspirin],senescence (SA-ß-gal staining) of ERCC1-deficient MEFs,[2],most effective for rescuing senescence
"IKKβ-derived peptide (701-746): longer IKKβ-derived peptide (701-746) containing all residues and domains (PAKKSEELVAEAHNLCTLLENAIQDTVREQDQSFTALDWSWLQTEE; UniProt O14920 701-746, looked up, fragment)",IC50,[8],~0.01 µM
"mutated 11-mer NBD peptide (735-745): 11-mer NBD peptide with substitutions of arginine for W741 and W739 (TALDRSRLQTE; NEMO binding domain; UniProt O14920 735-745, looked up, variant W739R W741R)",binding to NEMO,[8]; W741 and W739 substituted by arginine,unable to bind to NEMO
"traditional 11 amino acid NEMO binding domain peptide of IKKβ, amino acids 735-745, TALDWSWLQTE [11-mer NBD peptide]",IC50,[8],~100 µM
